Measured values published in US8658591B2, “Multi-LEU peptides and analogues thereof as selective PACE4 inhibitors and effective antiproliferative agents” (priority 2008, dated 2014).
“And” between values parts separate entries of the source, which are not always exact repeats. Equal values may be shown once.

Legend:
[1] = biological target: T1, PC7 (Homo sapiens, UniProt Q16549); test: Enzyme inhibition assay, fluorogenic substrate, PC7; type: biochemical; conditions: 20 mM Bis-Tis pH 6.5, 1 mM CaCl2, substrate 250 μM, 37° C.
T1 sequence (Q16549 142-785): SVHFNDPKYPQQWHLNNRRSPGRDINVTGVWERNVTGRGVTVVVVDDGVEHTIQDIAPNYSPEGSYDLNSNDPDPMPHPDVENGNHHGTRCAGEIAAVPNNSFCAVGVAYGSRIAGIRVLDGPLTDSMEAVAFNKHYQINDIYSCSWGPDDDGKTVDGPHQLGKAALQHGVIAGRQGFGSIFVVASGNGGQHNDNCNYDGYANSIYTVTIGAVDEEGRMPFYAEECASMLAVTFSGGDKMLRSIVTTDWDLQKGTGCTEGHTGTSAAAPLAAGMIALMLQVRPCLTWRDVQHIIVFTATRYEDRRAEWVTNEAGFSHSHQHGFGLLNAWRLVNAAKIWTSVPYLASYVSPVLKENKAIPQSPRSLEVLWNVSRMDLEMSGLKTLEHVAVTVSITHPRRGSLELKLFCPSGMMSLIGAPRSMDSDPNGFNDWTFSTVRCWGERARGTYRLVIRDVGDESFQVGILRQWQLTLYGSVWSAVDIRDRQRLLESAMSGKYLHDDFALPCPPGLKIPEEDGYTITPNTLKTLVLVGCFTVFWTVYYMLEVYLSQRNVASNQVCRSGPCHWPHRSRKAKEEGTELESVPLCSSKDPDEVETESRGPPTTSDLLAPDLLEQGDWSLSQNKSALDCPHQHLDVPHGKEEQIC
Method: (§1) Enzyme inhibition assays for furin (FIG. 5D) were performed in 100 mM Hepes pH 7.5, 1 mM CaCl2, 1 mM β-mercaptoethanol, 0.5 μg/μL BSA. Assays for PC2 (FIG. 5E) were performed in 20 mM Bis-Tris pH 5,7, 1 mM CaCl2, 0.1% Brij-30. Assays for PC1/3, PC4, PACE4, PC5/6 and PC7 (FIGS. 5F, G, A, B and C respectively) were performed in 20 mM Bis-Tis pH 6.5, 1 mM CaCl2. All assays were performed with the substrate pyroGlu-Arg-[…]-Lys-Arg-methyl-coumaryl-7-amide (SEQ ID NO: 33) (PyrRTKR-MCA (SEQ ID NO: 34)) (Bachem, CA) at 100 μM for furin, PC1/3, PC4, PACE4 and PC5/6, 200 μM for PC2 and 250 μM for PC7. Assays were carried out at 37° C. for 30-60 min and real-time fluorescence was measured with an excitation wavelength of 370 nm and an emission wavelength of 460 nm using a Gemini XS™ 96-well spectrofluorometer and SoftMaxPro4™ software (Molecular Devices, CA). Inhibitory peptides were added to the enzymes at decreasing concentrations from 100 μM to 50 nM and incubated 5 minutes prior to the addition of substrate.

[2] = biological target: furin (Homo sapiens, UniProt P09958); test: Enzyme inhibition assay, fluorogenic substrate, furin; type: biochemical
Chain of furin (P09958 108-794, species assumed): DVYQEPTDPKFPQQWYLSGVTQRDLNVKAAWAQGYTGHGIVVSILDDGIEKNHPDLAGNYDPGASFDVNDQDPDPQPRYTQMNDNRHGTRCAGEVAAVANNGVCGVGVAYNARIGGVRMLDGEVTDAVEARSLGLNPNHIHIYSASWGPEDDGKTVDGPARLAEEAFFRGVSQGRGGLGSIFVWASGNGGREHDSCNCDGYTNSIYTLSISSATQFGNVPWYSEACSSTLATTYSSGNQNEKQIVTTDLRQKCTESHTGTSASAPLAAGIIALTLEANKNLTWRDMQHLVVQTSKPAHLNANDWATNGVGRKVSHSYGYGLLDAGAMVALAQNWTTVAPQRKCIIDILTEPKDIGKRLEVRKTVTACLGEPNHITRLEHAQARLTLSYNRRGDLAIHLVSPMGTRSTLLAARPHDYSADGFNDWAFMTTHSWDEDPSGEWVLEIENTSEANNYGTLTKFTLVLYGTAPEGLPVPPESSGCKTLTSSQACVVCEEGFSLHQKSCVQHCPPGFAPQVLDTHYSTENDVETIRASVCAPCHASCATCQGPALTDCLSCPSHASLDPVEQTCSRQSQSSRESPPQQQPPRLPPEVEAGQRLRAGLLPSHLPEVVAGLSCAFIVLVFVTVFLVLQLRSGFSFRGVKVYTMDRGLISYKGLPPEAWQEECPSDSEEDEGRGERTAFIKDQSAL
Method: as §1

[3] = biological target: T2, PC1/3 (Homo sapiens, UniProt P29120); test: Enzyme inhibition assay, fluorogenic substrate, PC1/3; type: biochemical
T2 sequence (P29120 111-753): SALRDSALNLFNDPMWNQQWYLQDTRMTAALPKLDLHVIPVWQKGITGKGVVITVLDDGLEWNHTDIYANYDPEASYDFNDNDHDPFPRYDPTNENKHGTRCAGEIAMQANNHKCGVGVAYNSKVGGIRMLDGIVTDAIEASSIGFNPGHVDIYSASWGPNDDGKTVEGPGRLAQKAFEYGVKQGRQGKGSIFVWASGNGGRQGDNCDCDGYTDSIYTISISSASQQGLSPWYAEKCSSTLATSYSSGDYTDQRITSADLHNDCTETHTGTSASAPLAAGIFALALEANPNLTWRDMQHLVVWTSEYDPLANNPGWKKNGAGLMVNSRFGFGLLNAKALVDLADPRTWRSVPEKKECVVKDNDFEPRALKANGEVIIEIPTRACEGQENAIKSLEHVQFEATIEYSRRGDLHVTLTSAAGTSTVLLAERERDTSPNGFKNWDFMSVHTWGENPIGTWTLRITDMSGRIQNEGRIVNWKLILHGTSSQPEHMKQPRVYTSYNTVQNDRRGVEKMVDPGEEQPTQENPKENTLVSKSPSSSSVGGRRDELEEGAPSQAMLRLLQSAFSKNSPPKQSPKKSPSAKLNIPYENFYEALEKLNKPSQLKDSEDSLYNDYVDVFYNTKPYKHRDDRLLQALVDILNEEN
Method: as §1

[4] = biological target: PC5/6 (Homo sapiens, UniProt Q92824); test: Enzyme inhibition assay, fluorogenic substrate, PC5/6; type: biochemical
Chain of PC5/6 (Q92824 115-1860): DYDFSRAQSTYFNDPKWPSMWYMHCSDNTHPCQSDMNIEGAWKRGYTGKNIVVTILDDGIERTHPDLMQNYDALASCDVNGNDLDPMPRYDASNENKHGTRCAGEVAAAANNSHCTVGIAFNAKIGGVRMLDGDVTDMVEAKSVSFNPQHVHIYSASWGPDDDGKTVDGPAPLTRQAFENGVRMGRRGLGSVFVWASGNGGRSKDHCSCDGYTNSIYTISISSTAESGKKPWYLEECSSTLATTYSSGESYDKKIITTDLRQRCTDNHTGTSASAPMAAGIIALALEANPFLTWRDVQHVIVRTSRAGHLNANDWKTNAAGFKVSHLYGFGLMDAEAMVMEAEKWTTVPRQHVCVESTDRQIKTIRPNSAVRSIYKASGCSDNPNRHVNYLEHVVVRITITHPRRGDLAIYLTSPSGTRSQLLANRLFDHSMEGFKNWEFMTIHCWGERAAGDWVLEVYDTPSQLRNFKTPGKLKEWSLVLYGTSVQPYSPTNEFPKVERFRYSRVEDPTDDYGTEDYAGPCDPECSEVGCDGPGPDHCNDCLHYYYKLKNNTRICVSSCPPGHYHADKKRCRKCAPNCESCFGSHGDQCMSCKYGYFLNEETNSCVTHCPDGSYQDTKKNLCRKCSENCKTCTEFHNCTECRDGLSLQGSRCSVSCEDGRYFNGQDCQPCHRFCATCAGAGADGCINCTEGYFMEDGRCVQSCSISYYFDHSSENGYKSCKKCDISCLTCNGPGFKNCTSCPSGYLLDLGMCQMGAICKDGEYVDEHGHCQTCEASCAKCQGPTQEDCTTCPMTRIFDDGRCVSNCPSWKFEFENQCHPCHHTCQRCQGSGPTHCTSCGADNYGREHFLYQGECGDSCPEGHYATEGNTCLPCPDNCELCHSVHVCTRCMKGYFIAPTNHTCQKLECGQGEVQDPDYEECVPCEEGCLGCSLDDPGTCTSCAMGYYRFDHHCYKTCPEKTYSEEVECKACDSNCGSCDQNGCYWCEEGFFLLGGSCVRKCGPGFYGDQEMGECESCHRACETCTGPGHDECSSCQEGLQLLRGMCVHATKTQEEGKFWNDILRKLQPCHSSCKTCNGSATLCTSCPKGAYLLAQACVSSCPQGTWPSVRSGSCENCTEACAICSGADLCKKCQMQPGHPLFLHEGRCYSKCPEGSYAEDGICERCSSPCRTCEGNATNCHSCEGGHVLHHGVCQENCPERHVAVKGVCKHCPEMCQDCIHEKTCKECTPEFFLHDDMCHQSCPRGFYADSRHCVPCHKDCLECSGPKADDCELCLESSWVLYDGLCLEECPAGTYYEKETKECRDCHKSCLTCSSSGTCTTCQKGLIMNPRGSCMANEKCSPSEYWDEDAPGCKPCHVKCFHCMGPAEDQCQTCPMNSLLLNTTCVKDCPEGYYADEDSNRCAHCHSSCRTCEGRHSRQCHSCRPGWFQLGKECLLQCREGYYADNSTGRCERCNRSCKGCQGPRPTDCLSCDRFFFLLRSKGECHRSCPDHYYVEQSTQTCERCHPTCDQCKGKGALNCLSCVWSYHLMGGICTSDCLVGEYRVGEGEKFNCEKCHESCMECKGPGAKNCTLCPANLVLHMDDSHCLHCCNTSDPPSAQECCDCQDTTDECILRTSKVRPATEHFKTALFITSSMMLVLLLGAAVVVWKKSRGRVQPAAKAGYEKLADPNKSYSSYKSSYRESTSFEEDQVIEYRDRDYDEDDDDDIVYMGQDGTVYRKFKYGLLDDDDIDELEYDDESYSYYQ
Method: as §1

[5] = test system: 4-2 cells (DU145 transfected with PACE4-SOFA-δRz); test: Annexin-V-FITC/propidium iodide apoptosis assay, 4-2 cells; type: cell-based, human; conditions: 66 μM, 48 h
Method: To determine if the reduced cell number observed in the 4-2 cell line, described previously in Example 3, was a consequence of the induction of the apoptosis, the translocation of phosphatidylserine from the inner to the outer leaflet of the plasma membrane was analyzed. This analysis was performed with a FITC-conjugated annexin-V, which has a strong affinity for these extracellular phosphatidylserines, and the fluorescent intercalating agent propidium iodide (PI). Cell lines were seeded in a 6-well plate at a density of 8×10^4 cells/well in complete growth medium. The next day, cells were washed twice with PBS and complete growth media with or without cisplatin (Sigma) at final concentration of 66 μM were added. After a 48 hours incubation period, growth media were collected and combined to the harvested cells obtained after trypsin treatment. The collected pellets were washed with PBS before staining. Then, cells were stained with the Annexin-V-FLUOS™ Staining Kit (Roche Applied science), which double labeled cells with annexin-V-fluorescein isothiocyanate (FITC) and propidium iodide (PI). Stained cells were then analyzed with FACScan flow cytometer (BD Biosciences).

[6] = test system: DU145 cells; test: Annexin-V-FITC/propidium iodide apoptosis assay, DU145; type: cell-based, human; conditions: DU145, 66 μM, 48 h
Method: The annexin V assay is based on the observation that soon after initiating apoptosis, cells translocate the membrane phosphatidylserine from the inner face of the plasma membrane to the cell surface. Once on the cell surface, phosphatidylserine can be easily detected by staining with a fluorescent conjugate of Annexin V, a protein that has a high affinity for phosphatidylserine. Detection is analyzed by flow cytometry. […] This analysis was performed with a FITC-conjugated annexin-V, which has a strong affinity for these extracellular phosphatidylserines, and the fluorescent intercalating agent propidium iodide (PI). Cell lines were seeded in a 6-well plate at a density of 8×10^4 cells/well in complete growth medium. The next day, cells were washed twice with PBS and complete growth media with or without cisplatin (Sigma) at final concentration of 66 μM were added. After a 48 hours incubation period, growth media were collected and combined to the harvested cells obtained after trypsin treatment. The collected pellets were washed with PBS before staining. Then, cells were stained with the Annexin-V-FLUOS™ Staining Kit (Roche Applied science), which double labeled cells with annexin-V-fluorescein isothiocyanate (FITC) and propidium iodide (PI). Stained cells were then analyzed with FACScan flow cytometer (BD Biosciences).

[7] = test system: gliobastoma cell line U251; test: MTT cell proliferation index, U251; type: cell-based, human
Method: (§2) The effects of the PACE4 inhibitors on cell proliferation were evaluated. MTT assay was used to evaluate the effects of PACE4 inhibitors on cell proliferation. MTT (3-(4,5-Dimethylthiazol-2-yl)-2,5-diphenyltetrazolium bromide) assay is a standard colorimetric assay for measuring cellular proliferation. Yellow MTT is reduced to purple formazan in the mitochondria of living cells. This reduction takes place only when mitochondrial reductase enzymes are active. Conversion is directly related to the number of viable cells. The MTT assay is quantitative and more sensitive than viability using trypan blue and can also be adapted to 96 well formats, whereas trypan blue tests must be read individually. […]
(§3) The index of cellular proliferation of cells treated with the ML and acetyl-ML (CH3CO—NH-[…]-CONH2 (SEQ ID NO: 5), see Table 2) peptides were measured using the colorimetric MTT assay (thiazolyl blue tetrazolium bromide; Sigma-Aldrich). […]
(§4) 48 hours later, 20 μl of a MTT solution (5 mg/ml in PBS 1×) was added to each well for 4.5 h at 37° C./5% CO2. […] The absorbance was measured at a wavelength of 550 nm with a reference at 650 nm in microplate reader (SpectraMax190™; Molecular Devices).

[8] = test system: sarcofibroma cell line HT1080; test: MTT cell proliferation index, HT1080; type: cell-based, human
Method: as §2, §3, §4

[9] = test system: prostatic cell line DU145; test: MTT cell proliferation index, DU145; type: cell-based, human; conditions: control = 100%, MTT after 48 hours
Method: The effects of the PACE4 inhibitors on cell proliferation were evaluated. MTT assay was used to evaluate the effects of PACE4 inhibitors on cell proliferation. MTT (3-(4,5-Dimethylthiazol-2-yl)-2,5-diphenyltetrazolium bromide) assay is a standard colorimetric assay for measuring cellular proliferation. Yellow MTT is reduced to purple formazan in the mitochondria of living cells. This reduction takes place only when mitochondrial reductase enzymes are active. Conversion is directly related to the number of viable cells. The MTT assay is quantitative and more sensitive than viability using trypan blue and can also be adapted to 96 well formats, whereas trypan blue tests must be read individually. Because the MTT assay requires less cell manipulation than [^3H]thymidine incorporation assays (no cell harvesting or medium changes are necessary), the possibility of error is reduced and the standard deviation values are lower. […] Other assays also known can be used to determine the effects of an inhibitor on the proliferation of a cell.
The index of cellular proliferation of cells treated with the ML and acetyl-ML (CH3CO—NH-[…]-CONH2 (SEQ ID NO: 5), see Table 2) peptides were measured using the colorimetric MTT assay (thiazolyl blue tetrazolium bromide; Sigma-Aldrich). Briefly, cells were seeded in 96-well plate (BD Biosciences) in triplicate with 100 μl of a 3.5×10^4 cells/ml cell suspension in complete growth medium. The following day, cells were carefully washed twice with PBS and media were replaced with 100 μl of either RPMI or conditioned growth media. Conditioned growth medium preparation consists in 1.2×10^5 cells seeded in 6-well plates with complete growth media. The next day, cells are washed twice with PBS and the media are replaced with 1 ml RPMI growth medium. 48 hours later, the conditioned media are collected, filtered through […] syringe filter units and incubated on different cell lines.
48 hours later, 20 μl of a MTT solution (5 mg/ml in PBS 1×) was added to each well for 4.5 h at 37° C./5% CO2. The media was then discarded and the cells were solubilized with 100 μl isopropanol/0.04 N HCl solution. The absorbance was measured at a wavelength of 550 nm with a reference at 650 nm in microplate reader (SpectraMax190™; Molecular Devices).

[10] = biological target: T3, PACE4 (Homo sapiens, UniProt P29122); test: Enzyme inhibition assay, fluorogenic substrate, PACE4; type: biochemical
T3 sequence (P29122 150-969): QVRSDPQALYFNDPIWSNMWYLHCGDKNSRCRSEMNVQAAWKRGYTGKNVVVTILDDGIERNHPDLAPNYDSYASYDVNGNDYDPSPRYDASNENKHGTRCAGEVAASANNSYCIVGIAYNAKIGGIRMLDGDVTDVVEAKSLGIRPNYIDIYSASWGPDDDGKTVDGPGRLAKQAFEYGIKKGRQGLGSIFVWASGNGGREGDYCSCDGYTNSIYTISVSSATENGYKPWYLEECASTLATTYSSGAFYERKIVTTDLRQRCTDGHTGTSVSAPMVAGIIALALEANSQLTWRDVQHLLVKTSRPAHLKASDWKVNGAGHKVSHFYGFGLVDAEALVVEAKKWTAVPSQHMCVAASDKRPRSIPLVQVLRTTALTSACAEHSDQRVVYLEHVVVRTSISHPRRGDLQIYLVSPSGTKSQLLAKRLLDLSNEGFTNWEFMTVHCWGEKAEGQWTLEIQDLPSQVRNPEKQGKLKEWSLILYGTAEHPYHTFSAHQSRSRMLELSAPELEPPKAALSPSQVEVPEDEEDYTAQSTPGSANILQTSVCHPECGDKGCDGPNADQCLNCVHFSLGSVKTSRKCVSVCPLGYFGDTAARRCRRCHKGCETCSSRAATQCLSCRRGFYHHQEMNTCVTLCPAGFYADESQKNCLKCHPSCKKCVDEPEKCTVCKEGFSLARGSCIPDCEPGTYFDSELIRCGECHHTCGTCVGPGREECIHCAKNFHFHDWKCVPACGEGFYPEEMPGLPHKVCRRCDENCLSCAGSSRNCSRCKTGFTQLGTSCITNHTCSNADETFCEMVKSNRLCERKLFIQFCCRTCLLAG
Description: Those skilled in the art can easily determine PACE4 activity using routine experimentation. For example, the activity assay of PACE4 can be carried out in 96 well plates, and includes the use of a fluorogenic substrate, namely PyrRTKR-AMC (SEQ ID NO: 30) (AMC is amino-methyl-coumarin). The substrate and the purified enzyme are placed in the wells, and depending on the units of enzyme present, the AMC moiety will be cleaved at a certain rate, such a pmoles/sec. The resultant free AMC is now fluorescent and can be detected with a spectrofluorometer. The addition of inhibitors to the assay will yield progress curves that have lesser slopes. Based on these changes the inhibitory constants (Ki) is calculated (Fugere et al., 2002, J. Biol. Chem., 277:7648-56).
as §1

Compound	Ki [1]	inhibition potency on furin, in words [2]	effect on cell proliferation index, in words [7]	effect on cell proliferation index, in words [8]	Cell proliferation index ([9]; DU145, 1 μM peptide) [%]	Cell proliferation index ([9]; DU145, 10 μM peptide) [%]	Cell proliferation index ([9]; DU145, 50 μM peptide) [%]	Cell proliferation index ([9]; DU145, 100 μM peptide) [%]	further results
LRVKR [LRVKR—NH2, LRVKR-NH2]	–	mid-nanomolar inhibitors	–	–	–	–	–	–	–
N.N.[Cl][Pt][Cl] [cisplatin]	–	–	–	–	–	–	–	–	annexin-V positivity ([5]; untreated 3%): 17%; PI staining (dead cells) ([5]; untreated 7%): 16%; annexin-V positivity ([6]; untreated 2%): 30%; PI staining (dead cells) ([6]; untreated 6%): 12%
CH3CO—NH-LLLLRVKR-NH2 (Ac-LLLLRVKR-NH2) [acetyl ML]	–	–	significant effects	significant effects	63.84	41.91	25.79	24.05	–

Further lines, with some results ahead:

Ki [1]	inhibition potency on furin, in words [2]	Compound	effect on cell proliferation index, in words [7]	effect on cell proliferation index, in words [8]	Cell proliferation index ([9]; DU145, 1 μM peptide) [%]	Cell proliferation index ([9]; DU145, 10 μM peptide) [%]	Cell proliferation index ([9]; DU145, 50 μM peptide) [%]	Cell proliferation index ([9]; DU145, 100 μM peptide) [%]	further results
35 to 50 nM	–	CC(C)C[C@H](NC(=O)[C@H](CC(C)C)NC(=O)[C@H](CC(C)C)NC(=O)[C@@H](N)CC(C)C)C(=O)N[C@@H](CC(C)C)C(=O)N[C@@H](CCCNC(=N)N)C(=O)N[C@H](C(=O)N[C@@H](CCCCN)C(=O)N[C@@H](CCCNC(=N)N)C(N)=O)C(C)C [5 Leu]	–	–	–	–	–	–	–
–	mid-nanomolar inhibitors	LLRVKR [LLRVKR—NH2, LLRVKR-NH2]	–	–	–	–	–	–	inhibition potency on PC1/3, in words [3]: best inhibited; inhibition potency on PC5/6, in words [4]: mid-low nanomolar range
35 to 50 nM and 50 nM	–	H-LLLLRVKR-NH2 [ML]	significant effects	significant effects	97.73	92.03	72.57	54.70	inhibition potency on PACE4, in words [10]: nanomolar range; Ki ([10]; 20 mM Bis-Tis pH 6.5, 1 mM CaCl2, substrate 100 μM, 37° C.): 6 nM; more effective on PACE4 than the other PCs ([10]; ratio of Ki values, other PCs vs PACE4): ≥ 9 folds
